From ChEMBL document CHEMBL1201862, “PubChem BioAssay data set” (2004)
Calls of active or inactive are those of the source. For most assays here, no stated cut-off is given here; in the data, actives have a measured EC50 and inactives only a lower limit.

Columns and labels:
[1] = cells; assay type: functional
[2] = Luminescence Cell-Based Dose Confirmation HTS to Identify Activators of 5'UTR Stem-Loop Driven Alpha-Synuclein mRNA Translation in H4 Neuroglioblastoma Cells. [Related pubchem assays: 1829 (Project Summary), 1814 (Primary HTS)]; assay type: functional
[3] = Luminescence Cell-Based Dose Response HTS to Identify Activators of Luciferase Translation or Activity in H4 […] Cells. [Related pubchem assays: 1829 (Project Summary), 1814 (Primary HTS)]; assay type: functional
[4] = test system: H4; test: Luminescence Cell-Based Dose Response HTS to Identify Activators of 5'UTR Stem-Loop Driven Prion Protein mRNA Translation in H4 Neuroglioblastoma Cells. [Related pubchem assays: 1829 (Project Summary), 1814 (Primary HTS)]; assay type: functional; details: Homo sapiens
[5] = target: T1, Cytochrome P450 1A2 (Homo sapiens, UniProt P05177);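 further: PubChem cytochrome P450 panel assay, CYP1A2 panel member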
T1 sequence (P05177 whole entry): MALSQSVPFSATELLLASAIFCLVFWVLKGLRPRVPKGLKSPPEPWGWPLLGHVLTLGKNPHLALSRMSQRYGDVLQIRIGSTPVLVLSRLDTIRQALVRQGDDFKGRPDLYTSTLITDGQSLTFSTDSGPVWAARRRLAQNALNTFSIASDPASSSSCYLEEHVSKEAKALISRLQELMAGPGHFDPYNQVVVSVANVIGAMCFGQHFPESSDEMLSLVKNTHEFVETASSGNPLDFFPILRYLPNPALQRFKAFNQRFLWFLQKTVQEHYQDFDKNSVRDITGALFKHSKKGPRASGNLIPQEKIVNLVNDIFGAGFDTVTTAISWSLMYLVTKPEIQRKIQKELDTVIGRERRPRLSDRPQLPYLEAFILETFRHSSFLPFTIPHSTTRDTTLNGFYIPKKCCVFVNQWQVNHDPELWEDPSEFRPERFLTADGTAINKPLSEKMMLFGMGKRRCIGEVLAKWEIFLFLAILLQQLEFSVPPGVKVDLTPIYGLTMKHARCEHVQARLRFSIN

[6] = target: T2, Heat shock factor protein 1 (Mus musculus, UniProt P38532); test: inhibition of MG132-induced HSE-luciferase signal, confirmation, cell-based, NIH3T3, luminescence, dose retest (AID 2382); assay type: functional;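 further: NIH3T3 fibroblasts with HSF1-driven luciferase reporter stressed by proteasome inhibitor MG132; luminescence from HSF1-driven luciferase expression after 8 hours of MG132 stress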
T2 sequence (P38532 whole entry): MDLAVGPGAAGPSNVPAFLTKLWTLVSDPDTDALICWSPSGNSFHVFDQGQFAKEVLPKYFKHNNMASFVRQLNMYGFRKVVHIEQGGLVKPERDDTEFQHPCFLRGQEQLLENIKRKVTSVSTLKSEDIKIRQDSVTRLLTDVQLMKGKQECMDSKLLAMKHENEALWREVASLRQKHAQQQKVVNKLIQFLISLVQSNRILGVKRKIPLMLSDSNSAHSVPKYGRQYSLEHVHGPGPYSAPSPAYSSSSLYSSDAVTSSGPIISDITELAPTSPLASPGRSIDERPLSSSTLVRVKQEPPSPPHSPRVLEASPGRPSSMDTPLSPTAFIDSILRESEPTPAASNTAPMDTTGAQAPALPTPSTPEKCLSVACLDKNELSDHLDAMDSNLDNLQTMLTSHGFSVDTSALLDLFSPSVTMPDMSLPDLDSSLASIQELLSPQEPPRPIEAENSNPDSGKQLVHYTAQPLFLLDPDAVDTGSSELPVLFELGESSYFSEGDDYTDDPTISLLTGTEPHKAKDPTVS

[7] = target: T3, Replicative DNA helicase DnaB (Mycobacterium tuberculosis, UniProt P9WMR3); test: DnaB intein splicing inhibitors, dose response, biochemical, cell-free fluorescence (AID 449749); assay type: functional
T3 sequence (P9WMR3 whole entry): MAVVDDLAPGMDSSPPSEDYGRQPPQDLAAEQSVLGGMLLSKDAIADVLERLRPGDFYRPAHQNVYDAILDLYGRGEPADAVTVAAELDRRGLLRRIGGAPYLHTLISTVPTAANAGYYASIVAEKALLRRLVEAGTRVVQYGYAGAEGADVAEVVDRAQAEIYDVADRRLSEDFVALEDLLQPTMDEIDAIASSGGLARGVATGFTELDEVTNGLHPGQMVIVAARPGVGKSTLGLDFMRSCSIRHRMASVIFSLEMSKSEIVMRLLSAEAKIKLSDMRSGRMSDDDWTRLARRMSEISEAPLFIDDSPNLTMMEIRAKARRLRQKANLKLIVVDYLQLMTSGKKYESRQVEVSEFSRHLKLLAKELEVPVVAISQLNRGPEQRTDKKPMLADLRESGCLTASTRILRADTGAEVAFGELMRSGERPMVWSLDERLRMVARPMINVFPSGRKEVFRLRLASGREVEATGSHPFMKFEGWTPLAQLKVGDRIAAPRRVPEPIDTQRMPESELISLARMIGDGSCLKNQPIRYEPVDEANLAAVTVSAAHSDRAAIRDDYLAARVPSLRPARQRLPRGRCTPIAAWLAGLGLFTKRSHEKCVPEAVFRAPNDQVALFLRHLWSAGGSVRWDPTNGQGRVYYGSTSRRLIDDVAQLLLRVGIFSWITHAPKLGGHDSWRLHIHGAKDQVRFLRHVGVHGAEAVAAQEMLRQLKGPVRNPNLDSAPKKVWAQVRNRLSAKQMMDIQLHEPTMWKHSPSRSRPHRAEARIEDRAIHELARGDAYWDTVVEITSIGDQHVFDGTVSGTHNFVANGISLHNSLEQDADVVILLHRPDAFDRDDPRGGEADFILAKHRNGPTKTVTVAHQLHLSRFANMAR

[8] = target: T4, Protein RecA (Mycobacterium tuberculosis, UniProt P9WHJ3); test: Fluorescence Cell-Free Homogeneous Dose Retest to Identify Inhibitors of RecA-Intein Splicing Activity. [Related pubchem assays (depositor defined):AID2097, AID2223, AID489010, AID492950]; assay type: functional
T4 sequence (P9WHJ3 whole entry): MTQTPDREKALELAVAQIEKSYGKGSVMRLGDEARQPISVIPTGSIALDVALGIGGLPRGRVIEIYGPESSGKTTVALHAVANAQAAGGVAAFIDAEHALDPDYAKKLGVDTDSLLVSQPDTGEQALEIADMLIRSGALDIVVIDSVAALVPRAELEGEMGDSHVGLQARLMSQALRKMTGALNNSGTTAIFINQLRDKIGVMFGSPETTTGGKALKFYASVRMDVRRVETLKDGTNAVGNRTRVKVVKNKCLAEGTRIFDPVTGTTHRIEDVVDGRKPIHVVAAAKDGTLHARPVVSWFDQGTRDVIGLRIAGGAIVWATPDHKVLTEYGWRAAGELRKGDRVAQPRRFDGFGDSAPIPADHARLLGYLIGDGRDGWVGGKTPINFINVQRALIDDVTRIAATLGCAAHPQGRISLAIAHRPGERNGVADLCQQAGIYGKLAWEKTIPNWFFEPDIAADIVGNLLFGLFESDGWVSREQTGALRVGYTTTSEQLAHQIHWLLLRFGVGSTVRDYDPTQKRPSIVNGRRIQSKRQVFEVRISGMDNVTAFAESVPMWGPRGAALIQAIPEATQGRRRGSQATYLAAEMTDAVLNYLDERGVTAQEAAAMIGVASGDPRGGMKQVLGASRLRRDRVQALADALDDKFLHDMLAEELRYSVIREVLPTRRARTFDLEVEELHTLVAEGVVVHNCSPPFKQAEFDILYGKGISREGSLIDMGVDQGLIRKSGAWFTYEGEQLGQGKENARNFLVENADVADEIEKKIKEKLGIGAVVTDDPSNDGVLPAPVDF

[9] = test system: Streptococcus sp. 'group A'; test: growth inhibition of control SK(-) GAS strain, dose response, counter-screen for streptokinase expression inhibitor project, luminescence, kanamycin, BacTiterGlo, confirmation (AID 1900); assay type: functional, organism-based
[10] = target: T5, Streptokinase A (Streptococcus pyogenes serotype M1, UniProt P10520); test: S. pyogenes streptokinase expression inhibitors, potency, dose response, plasminogen activation absorbance, OD405 (AID 1914); assay type: functional, Streptococcus pyogenes M1 GAS;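 further: secreted streptokinase activity via plasminogen activation per viability signal from cell pellet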
T5 sequence (P10520 whole entry): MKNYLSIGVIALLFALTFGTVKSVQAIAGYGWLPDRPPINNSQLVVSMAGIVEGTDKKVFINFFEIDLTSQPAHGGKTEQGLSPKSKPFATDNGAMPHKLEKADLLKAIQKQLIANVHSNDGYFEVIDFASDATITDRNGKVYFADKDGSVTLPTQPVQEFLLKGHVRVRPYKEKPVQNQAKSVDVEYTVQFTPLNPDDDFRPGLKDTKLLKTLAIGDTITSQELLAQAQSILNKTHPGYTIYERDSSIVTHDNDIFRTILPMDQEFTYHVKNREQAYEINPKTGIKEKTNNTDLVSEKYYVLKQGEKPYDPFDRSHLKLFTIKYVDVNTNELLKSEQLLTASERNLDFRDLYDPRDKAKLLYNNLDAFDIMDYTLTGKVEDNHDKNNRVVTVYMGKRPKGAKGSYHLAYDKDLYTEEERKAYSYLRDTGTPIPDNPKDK

[11] = test system: Streptococcus; test: Group A Streptococcus viability loss, dose response, counter-screen for streptokinase expression inhibitor project, luminescence, BacTiterGlo (AID 1915); assay type: functional, organism-based;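 further: potency for reduction of bacterial viability or growth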
[12] = target: Cytochrome P450 2D6 (Homo sapiens, UniProt P10635);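 further: CYP2D6 member of a cytochrome P450 panel assay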
Chain of Cytochrome P450 2D6 (P10635 whole entry): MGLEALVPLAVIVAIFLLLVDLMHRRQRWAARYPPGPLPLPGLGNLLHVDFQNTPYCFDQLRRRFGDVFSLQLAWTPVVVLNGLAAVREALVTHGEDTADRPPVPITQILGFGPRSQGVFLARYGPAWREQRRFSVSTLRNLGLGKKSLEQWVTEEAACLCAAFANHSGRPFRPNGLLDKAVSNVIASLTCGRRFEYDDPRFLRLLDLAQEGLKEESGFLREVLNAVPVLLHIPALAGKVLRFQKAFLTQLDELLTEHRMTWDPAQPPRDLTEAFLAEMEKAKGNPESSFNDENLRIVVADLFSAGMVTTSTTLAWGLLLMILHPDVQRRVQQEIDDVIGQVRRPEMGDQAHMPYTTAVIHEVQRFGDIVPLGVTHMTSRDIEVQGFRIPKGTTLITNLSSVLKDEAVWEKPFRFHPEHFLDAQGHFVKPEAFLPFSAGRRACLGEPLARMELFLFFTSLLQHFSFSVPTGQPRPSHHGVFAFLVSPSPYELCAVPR

[13] = target: Cytochrome P450 3A4 (Homo sapiens, UniProt P08684);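 further: CYP3A4 tested as one member of a cytochrome P450 panel screen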
Chain of Cytochrome P450 3A4 (P08684 whole entry): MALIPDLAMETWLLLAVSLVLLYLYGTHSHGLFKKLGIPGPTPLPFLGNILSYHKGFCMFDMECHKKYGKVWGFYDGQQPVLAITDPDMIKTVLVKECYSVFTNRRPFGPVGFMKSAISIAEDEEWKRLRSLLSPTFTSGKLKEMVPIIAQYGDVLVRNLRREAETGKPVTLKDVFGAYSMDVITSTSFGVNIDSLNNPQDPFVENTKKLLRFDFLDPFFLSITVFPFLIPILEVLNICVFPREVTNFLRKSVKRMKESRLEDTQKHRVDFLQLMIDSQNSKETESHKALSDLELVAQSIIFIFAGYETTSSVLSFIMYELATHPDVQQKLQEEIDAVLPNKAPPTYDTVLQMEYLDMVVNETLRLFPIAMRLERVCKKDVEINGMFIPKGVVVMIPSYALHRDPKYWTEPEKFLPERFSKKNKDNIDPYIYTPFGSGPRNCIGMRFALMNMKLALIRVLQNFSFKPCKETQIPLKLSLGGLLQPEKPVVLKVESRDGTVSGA

SMILES | EC50 [2] | EC50 [3] | EC50 [4] | further results
CCc1ccc(N2CCN(CCNC(=O)Nc3ccc(OC)cc3)CC2)cc1 |  |  |  | IC50 [1]: 38.2 µM (active)
COc1cc(/C=N/n2c(C)nnc2S)ccc1OCc1ccc(F)cc1 | > 120 µM (not active) | > 120 µM (not active) | 32 µM (active) | 
CC(=O)N1CCC2(CCN(Cc3cc(C(F)(F)F)cc(C(F)(F)F)c3)CC2)CC1 |  |  |  | AC50 [5]: 15.8 µM (inconclusive)
CC(C)NC(=O)c1[nH]nc2c1CCc1ccccc1-2 | 5.26 µM (active) | 56 µM (active) | 8.82 µM (active) | 
O=C(Nc1c(F)cc(F)cc1Br)c1cc(-c2ccccc2)on1 |  |  |  | IC50 [1]: 4 µM (active)
O=C1NCCCC1C(=O)Nc1ccccc1C(F)(F)F (stereo not drawn) |  |  |  | AC50 [5]: 39.8 µM (inconclusive)
O=C(c1ccccc1)[C@H]1[C@H](c2ccccc2)[C@@]2(N=C(c3ccccc3)OC2=O)C2c3ccccc3C=NN21 (stereo partly drawn) | 6.71 µM (active) | 19 µM (active) | > 120 µM (not active) | 
C(=N\Nc1nc(-c2ccccc2)cs1)/c1cccnc1 | 0.198 µM (active) | 33.3 µM (active) | 44.1 µM (active) | 
Cc1ccnc(NC(=O)CCc2c[nH]c3ccccc23)c1 |  |  |  | IC50 [1]: 21.6 µM (active)
CSc1ccc(/C=C(/NC(=O)c2ccccc2)C(=O)N2CCN(C)CC2)cc1 | > 120 µM (not active) | > 120 µM (not active) | > 60 µM (not active) | 
CCOc1ccc(-c2nc3ccccc3c(=O)o2)cc1 |  |  |  | IC50 [1]: 7.01 µM (active)
N[C@H](C(=O)O)[C@H](OCc1ccccc1)C(=O)O |  |  |  | AC50 [5]: 31.6 µM (inconclusive)
c1ccc(CN2CC[C@@H](CNc3ncnc4ccccc34)C2)cc1 |  |  |  | AC50 [5]: 6.31 µM (inconclusive)
CCCn1c(N)c(Sc2ccc(C)cc2)c(=O)n(CCC)c1=O | > 120 µM (not active) | > 120 µM (not active) | > 120 µM (not active) | 
O=c1c2ccccc2c2ccccc2c(=O)n1-c1cc2c3ccccc3ccc2c2ccccc12 |  |  |  | AC50 [5]: 6.31 µM (inconclusive)
O=C(c1ccc(F)cc1)c1ccc(-c2ccc(F)cc2)nc1 | 4.41 µM (active) | 11.9 µM (active) | 11.6 µM (active) | 
O=[N+]([O-])c1ccc(/C=C2\CCC(C3=CCCC3)=C2N2CCOCC2)cc1 | > 120 µM (not active) | > 120 µM (not active) | > 120 µM (not active) | 
CC(C)(C)C(=O)Nc1ccc(N=Nc2ccccc2)cc1 |  |  |  | EC50 [6]: < 0.16 µM (active); AC50 [7]: 4.35 µM (active); EC50 [8]: 2.85 µM (active)
O=C(Nc1cc(Cl)ccc1-n1cncn1)c1ccc([N+](=O)[O-])o1 | > 120 µM (not active) | > 120 µM (not active) | > 120 µM (not active) | EC50 [9]: 11.7 µM (active); EC50 [10]: 56.7 µM (inconclusive); EC50 [11]: > 150 µM (not active)
CNC(=O)COC(=O)c1ccc(-c2nc3ccccc3s2)s1 |  | 0.764 µM (active) | 56.3 µM (active) | IC50 [1]: 5.82 µM (active)
CC(C)N(Cc1nccn1C)C(=O)CCc1nnc(CCCc2ccccc2)o1 | 12.7 µM (active) | 15.5 µM (active) | 31.2 µM (active) | 
Cc1ccc(NC(=O)c2ocnc2C)cc1Cl | 0.145 µM (active) | 1.04 µM (active) | 6.44 µM (active) | 
Cc1nn(C(=O)c2cccnc2)c(C)c1Sc1ccc(Br)cc1 |  |  |  | EC50 [9]: 11.1 µM (active); EC50 [10]: > 150 µM (not active); EC50 [11]: > 150 µM (not active); AC50 [7]: 4.61 µM (active); EC50 [8]: 18.7 µM (active); AC50 [12]: 25.1 µM (inconclusive); AC50 [13]: 15.8 µM (inconclusive)
O=C(NNC(=O)c1ccccc1F)c1ccc(-c2ccc(Cl)cc2)o1 |  |  |  | IC50 [1]: 8.21 µM (active)
O=C(CSCc1ccccc1)Nc1cccc(C(=O)Nc2ccccc2C(=O)O)c1 |  |  |  | AC50 [5]: 15.8 µM (inconclusive)
S=C(Nc1ccc(Br)cc1Cl)N1CCC2(CC1)OCCO2 | > 120 µM (not active) | 23.5 µM (active) | 16 µM (active) | 
